Source: ChEMBL document CHEMBL3045777, “Response of selected horseweed (Conyza canadensis (L.) Cronq.) populations to glyphosate” (2004)

What was measured:
[1] = system: Erigeron canadensis; experiment: Herbicidal activity against compound-resistant Conyza canadensis (horseweed) isolate 1 under greenhouse condition assessed as fresh weight at 0.84 kg ae/ha measured 21 days post treatment relative to untreated control
[2] = system: Erigeron canadensis; experiment: Herbicidal activity against compound-resistant Conyza canadensis (horseweed) isolate 1 under greenhouse condition at 1.25 kg ae/ha measured 7 days post treatment relative to control; format: functional
[3] = system: Erigeron canadensis; experiment: Herbicidal activity against compound-resistant Conyza canadensis (horseweed) isolate 1 under greenhouse condition at 3.36 kg ae/ha measured 7 days post treatment relative to control; format: functional
[4] = system: Erigeron canadensis; experiment: Herbicidal activity against compound-sensitive Conyza canadensis (horseweed) under greenhouse condition at 0.84 kg ae/ha measured 21 days post treatment relative to control; format: functional
[5] = system: Erigeron canadensis; experiment: Herbicidal activity against compound-sensitive Conyza canadensis (horseweed) under greenhouse condition at 9 kg ae/ha measured 21 days post treatment relative to control; format: functional
[6] = system: Erigeron canadensis; experiment: Herbicidal activity against compound-resistant Conyza canadensis (horseweed) isolate 1 under greenhouse condition assessed as fresh weight at 3.36 kg ae/ha measured 21 days post treatment relative to untreated control
[7] = system: Erigeron canadensis; experiment: Herbicidal activity against compound-sensitive Conyza canadensis (horseweed) under greenhouse condition at 1.25 kg ae/ha measured 7 days post treatment relative to control; format: functional
[8] = system: Erigeron canadensis; experiment: Herbicidal activity against compound-sensitive Conyza canadensis (horseweed) under greenhouse condition at 0.45 kg ae/ha measured 14 days post treatment relative to control; format: functional
[9] = system: Erigeron canadensis; experiment: Herbicidal activity against compound-sensitive Conyza canadensis (horseweed) under greenhouse condition at 1.25 kg ae/ha measured 21 days post treatment relative to control; format: functional
[10] = system: Erigeron canadensis; experiment: Herbicidal activity against compound-sensitive Conyza canadensis (horseweed) under greenhouse condition at 1.68 kg ae/ha measured 7 days post treatment relative to control; format: functional
[11] = system: Erigeron canadensis; experiment: Herbicidal activity against Conyza canadensis (horseweed) under greenhouse condition assessed as decrease in fresh weight at 0.05 kg ae/ha measured 21 days post treatment relative to untreated control; format: functional
[12] = system: Erigeron canadensis; experiment: Herbicidal activity against Conyza canadensis (horseweed) under greenhouse condition at 0.05 kg ae/ha measured 21 days post treatment relative to control; format: functional
[13] = system: Erigeron canadensis; experiment: Herbicidal activity against compound-resistant Conyza canadensis (horseweed) isolate 1 under greenhouse condition at 2.52 kg ae/ha measured 14 days post treatment relative to control; format: functional
[14] = system: Erigeron canadensis; experiment: Herbicidal activity against compound-resistant Conyza canadensis (horseweed) isolate 2 under greenhouse condition assessed as fresh weight at 9 kg ae/ha measured 21 days post treatment relative to untreated control
[15] = system: Erigeron canadensis; experiment: Herbicidal activity against compound-resistant Conyza canadensis (horseweed) isolate 1 under greenhouse condition at 2.52 kg ae/ha measured 7 days post treatment relative to control; format: functional
[16] = system: Erigeron canadensis; experiment: Herbicidal activity against compound-resistant Conyza canadensis (horseweed) isolate 1 under greenhouse condition at 9 kg ae/ha measured 14 days post treatment relative to control; format: functional
[17] = system: Erigeron canadensis; experiment: Herbicidal activity against compound-sensitive Conyza canadensis (horseweed) under greenhouse condition at 0.45 kg ae/ha measured 7 days post treatment relative to control; format: functional
[18] = system: Erigeron canadensis; experiment: Herbicidal activity against compound-resistant Conyza canadensis (horseweed) isolate 2 under greenhouse condition at 0.84 kg ae/ha measured 14 days post treatment relative to control; format: functional
[19] = system: Erigeron canadensis; experiment: Herbicidal activity against compound-resistant Conyza canadensis (horseweed) isolate 2 under greenhouse condition at 0.45 kg ae/ha measured 21 days post treatment relative to control; format: functional
[20] = system: Erigeron canadensis; experiment: Herbicidal activity against compound-resistant Conyza canadensis (horseweed) isolate 2 under greenhouse condition at 3.36 kg ae/ha measured 7 days post treatment relative to control; format: functional
[21] = system: Erigeron canadensis; experiment: Herbicidal activity against compound-resistant Conyza canadensis (horseweed) isolate 1 under greenhouse condition assessed as fresh weight at 2.52 kg ae/ha measured 21 days post treatment relative to untreated control
[22] = system: Erigeron canadensis; experiment: Herbicidal activity against compound-sensitive Conyza canadensis (horseweed) under greenhouse condition assessed as fresh weight at 1.25 kg ae/ha measured 21 days post treatment relative to untreated control
[23] = system: Erigeron canadensis; experiment: Herbicidal activity against compound-resistant Conyza canadensis (horseweed) isolate 2 under greenhouse condition at 0.45 kg ae/ha measured 7 days post treatment relative to control; format: functional
[24] = system: Erigeron canadensis; experiment: Herbicidal activity against compound-resistant Conyza canadensis (horseweed) isolate 1 under greenhouse condition at 3.36 kg ae/ha measured 14 days post treatment relative to control; format: functional
[25] = system: Erigeron canadensis; experiment: Herbicidal activity against compound-sensitive Conyza canadensis (horseweed) under greenhouse condition at 3.36 kg ae/ha measured 14 days post treatment relative to control; format: functional
[26] = system: Erigeron canadensis; experiment: Herbicidal activity against compound-resistant Conyza canadensis (horseweed) isolate 2 under greenhouse condition assessed as fresh weight at 3.36 kg ae/ha measured 21 days post treatment relative to untreated control
[27] = system: Erigeron canadensis; experiment: Herbicidal activity against compound-resistant Conyza canadensis (horseweed) isolate 2 under greenhouse condition at 0.45 kg ae/ha measured 14 days post treatment relative to control; format: functional
[28] = system: Erigeron canadensis; experiment: Herbicidal activity against compound-resistant Conyza canadensis (horseweed) isolate 2 under greenhouse condition assessed as fresh weight at 0.45 kg ae/ha measured 21 days post treatment relative to untreated control
[29] = system: Erigeron canadensis; experiment: Herbicidal activity against compound-sensitive Conyza canadensis (horseweed) under greenhouse condition at 9 kg ae/ha measured 7 days post treatment relative to control; format: functional
[30] = system: Erigeron canadensis; experiment: Herbicidal activity against compound-resistant Conyza canadensis (horseweed) isolate 1 under greenhouse condition at 0.45 kg ae/ha measured 7 days post treatment relative to control; format: functional
[31] = system: Erigeron canadensis; experiment: Herbicidal activity against compound-sensitive Conyza canadensis (horseweed) under greenhouse condition at 3.36 kg ae/ha measured 21 days post treatment relative to control; format: functional
[32] = system: Erigeron canadensis; experiment: Herbicidal activity against compound-resistant Conyza canadensis (horseweed) isolate 2 under greenhouse condition at 2.52 kg ae/ha measured 7 days post treatment relative to control; format: functional
[33] = system: Erigeron canadensis; experiment: Herbicidal activity against compound-resistant Conyza canadensis (horseweed) isolate 1 under greenhouse condition assessed as fresh weight at 1.68 kg ae/ha measured 21 days post treatment relative to untreated control
[34] = system: Erigeron canadensis; experiment: Herbicidal activity against compound-resistant Conyza canadensis (horseweed) isolate 1 under greenhouse condition assessed as fresh weight at 0.45 kg ae/ha measured 21 days post treatment relative to untreated control
[35] = system: Erigeron canadensis; experiment: Herbicidal activity against compound-sensitive Conyza canadensis (horseweed) under greenhouse condition at 9 kg ae/ha measured 14 days post treatment relative to control; format: functional
[36] = system: Erigeron canadensis; experiment: Herbicidal activity against compound-sensitive Conyza canadensis (horseweed) under greenhouse condition at 1.68 kg ae/ha measured 14 days post treatment relative to control; format: functional
[37] = system: Erigeron canadensis; experiment: Herbicidal activity against compound-resistant Conyza canadensis (horseweed) isolate 1 under greenhouse condition at 1.25 kg ae/ha measured 21 days post treatment relative to control; format: functional

Compound: O=C(O)CNCP(=O)(O)O [GLYPHOSATE]
- level, % of control [1]: 94%
- Activity [2]: 28%
- Activity [3]: 73%
- Activity [4]: 88%
- Activity [5]: 99%
- level, % of control [6]: 7%
- Activity [7]: 60%
- Activity [8]: 40%
- Activity [9]: 90%
- Activity [10]: 63%
- Activity [11]: 4 g
- Activity [12]: 26%
- Activity [13]: 45%
- level, % of control [14]: 12%
- Activity [15]: 58%
- Activity [16]: 80%
- Activity [17]: 40%
- Activity [18]: 14%
- Activity [19]: 20%
- Activity [20]: 60%
- level, % of control [21]: 25%
- level, % of control [22]: 19%
- Activity [23]: 13%
- Activity [24]: 58%
- Activity [25]: 95%
- level, % of control [26]: 18%
- Activity [27]: 13%
- level, % of control [28]: 94%
- Activity [29]: 90%
- Activity [30]: 10%
- Activity [31]: 99%
- Activity [32]: 53%
- level, % of control [33]: 36%
- level, % of control [34]: 99%
- Activity [35]: 98%
- Activity [36]: 98%
- Activity [37]: 30%
